Values of other authors in patent US6365216B1, “Particles of N-[N-(3,3-dimethylbutyl)-L-α-aspartyl]-L-phenylalanine 1-methyl ester” (The NutraSweet Company, priority 1999, dated 2002).

Conditions: times sweeter than sugar (sucrose)

In the case of `COC(=O)C(Cc1ccccc1)NC(=O)C(CC(=O)O)NCCC(C)(C)C` [neotame, N-[N-(3,3-dimethylbutyl)-L-α-aspartyl]-L-phenylalanine 1-methyl ester], the sweetness potency is listed as “about 8000 X”.
